Laboratory results from patent US7470660B2, “Treatment for dark adaptation” (The Regents of the University of California, priority 2001, dated 2008).
Entries after “also recorded” stand apart in the source; their conditions may differ.

Columns and labels:
[1] = tested on: apo E secretion from RPE cells; test: Apo E secretion from RPE cells, ELISA; format: cell-based, human; details: 36 hours, serum free DMEM; 10^-7 M T3; 2.5x10^-6 M 22(R) hydroxycholesterol; 10^-7 M cis retinoic acid; alone and in combination; FIG. 14
Procedure: RPE cells were treated for 36 hours on Transwell® plates with serum free DMEM +/− the drugs indicated. Control refers to no drug addition, T refers to 10^−7 M T3; HC refers to 2.5×10^−6 M 22(R) hydroxycholesterol; RA refers to 10^−7 M cis retinoic acid. N=6, * indicates p<0.05 (two-tailed t-test) compared to Control.
Media samples treated with 0.1% Tween-20 containing 1% bovine serum albumin were incubated (37° C., 4 h) in 96-well plates previously coated with apo E-affinity purified goat anti-apo E antibody. Apo E was detected using a secondary antibody-peroxidase conjugate and 3.3.5.5′-[…] (TMB) substrate. Optical density was measured at 450 nm. The assay was calibrated with purified plasma apo E. The dynamic range of the assay was 1-40 ng/ml apo E with a CV<5%.

[2] = tested on: apo E secretion from RPE cells; test: Apo E secretion into basal media of RPE cells, western blot; format: cell-based, human; details: 36 hour incubation, both chambers, T3 10^-7 M, 22 (R) hydroxycholesterol 2.5x10^-6 M, cis retinoic acid 10^-7 M (10^-6 M elsewhere in the source), FIG. 6
Procedure: Primary cultures of normal human RPE cells from passages 5 to 10 were used for the experiments described. RPE cells were grown to confluence on laminin-coated 6 well Transwell tissue culture plates (Costar) with DMEM-H21 containing 10% fetal bovine serum, 2 mM glutamine, 50 μg/ml gentamicin and 2.5 mg/ml fungizone in the top and bottom chambers. […] Cells were grown for at least 1 week at confluence prior to drug treatment. Cells to be treated with drugs were incubated in serum free DMEM-H21 prior to drug addition. Drug treatments were in serum free DMEM-H21 with or without 10^−7 M thyroid hormone (T3), 2.5×10^−6 M 22 (R) hydroxycholesterol, or 10^−7 M cis retinoic acid in both chambers for 36 hours.
Total protein content was determined by a modified Lowry assay (Bio-Rad DC kit, Richmond, Calif.). Concentrated media (50 μg protein) was made to Start Buffer (0.025 M NaCl, 0.010 M tris (pH 8.5), 5 mM MnCl2) and adsorbed onto a 0.1 ml column containing Heparin-Sepharose CL-4B (Pharmacia, Uppsala, Sweden). Following a 2 ml wash in Start Buffer, the apo E containing bound fraction was eluted with 0.5M NaCl in Start buffer. The eluate was concentrated to 20 μl and buffer-exchanged to SalEN by centrifugal ultrafiltration (Biomax, 5k MCO, Millipore, Bedford, Mass.). Apo E was resolved by tris-tricine buffered SDS-PAGE (5-25% linear acrylamide gradient) and proteins electrophoetically transferred (55V, 18 h) to nitrocelluose membrane filters (Schleicher and Shuell, Keen, N.H.). Membranes were blocked with 10% bovine serum albumin at room temperature and probed with 1% goat anti-human apo E antiserum (18 h, 3° C.) prepared in 0.15% NaCl, 1 mM EDTA (pH 7.4), 0.1% Triton X-100 (SalET). The primary-bound anti-apo E antibodies were detected colorimetrically with horseradish peroxidase conjugated rabbit anti-goat Ig (H+L) and NiCl2-enhanced diaminobenzine staining. Stained bands were compared densitometrically from the digitized scanned image (NIH Image, v.1.62).
In order to distinguish apical (A) from basally (B) secreted apo E, RPE cells were cultured on laminin-coated Transwell plates. […] Total protein and apo E-specific protein concentrations were measured from media pooled and concentrated from 3-6 replicate wells. To assess apo E-specific secretion, apo E was purified from conditioned media by heparin-sepharose affinity chromatography and visualized by western blotting.
Since RPE cells express lxr α as well as thyroid hormone receptors (TRs) and retinoid-X-receptors (RXRs), the effect of 10^−7 M T3, 2.5×10^−6 M 22 (R) hydroxycholesterol (HC) (an lxr α agonist), or 10^−7 M cis retinoic acid (cRA) (an RXR agonist) on apo E secretion from RPE cells was tested. FIG. 6 illustrates the same experimental procedure as described above, but with basal and apical media both containing the following compounds for a 36 hour incubation: T3 (10^−7) M (T); 9 cis-RA (10^−6) M (RA); and 22 (R) hydroxycholesterol 2.5 (10^−6) M (HC).
Control (C) refers to no drug addition; T refers to 10^−7 M T3; RA refers to 10^−7 M cis retinoic acid; and HC refers to 2.5×10^−6 M 22(R) hydroxycholesterol. Basal media from 3 wells were combined, concentrated, and apo E was detected by western blotting.

[3] = tested on: cultured human RPE cells; test: 14C-DHA labeled POS efflux into basal media after drug treatment; format: cell-based; details: 36 hours; 10^-7 M T3, 2.5x10^-5 M 22 (R) hydroxycholesterol or 10^-7 M cis retinoic acid; basal medium 1 mg/ml HDL; FIG. 10
Procedure: Bovine outer photoreceptor outer segments (POS) were labeled by incubating […] Coenzyme A, ATP, Mg^2+, and [^14C]-DHA. Cells grown on laminin coated Transwell plates were incubated with 12 μg/ml labeled POS in the apical chamber for 36 hours in medium containing 10% lipoprotein deficient fetal bovine serum. The basal medium was subjected to scintillation counting to determine the amount of [^14C] labeled lipids transported through the RPE cells.
This experiment determines whether compound administration can upregulate efflux of labeled POS residues to HDL, particularly by showing regulation of ^14C-DHA labeled POS efflux into basal media. An assay similar to that described in Example 4 is utilized; however, in this Example the cells were treated with T3, 9 cis-retinoic acid, and 22 (R) hydroxycholesterol in the concentrations described above for 36 hours. Total radioactivity (cpm) in the absence of HDL purification was determined by liquid scintillation counting of the basal media.
Specifically, cells were grown for 1 to 2 weeks at confluence on Transwell plates. ^14C-labeled POS […] were added to the apical medium. The apical and basal medium comprised either 10^−7 M T3, 2.5×10^−5 M 22 (R) hydroxycholesterol, or 10^−7 M cis retinoic acid. The basal medium contained 1 mg/ml HDL. After 36 hours the basal medium was collected and ^14C counts were determined by scintillation counting.

[4] = tested on: Human retinal pigment epithelial cells; test: 14C-labeled lipid efflux from RPE cells with HDL, apoA-I or apoA-I vesicles; format: cell-based; details: basal chamber, 36 hours, vs Control; FIG. 19
Procedure: The present inventors have created liposomes comprising apoA-I (artificial preβ1 HDL). Artificial discoidal apoA-I liposomes comprising purified human plasma apoAI, the saturated phospholipid dimyristoyl-L-α-phoshatidylcholine (DMPC) and cholesterol were constructed by the sodium cholate dialysis method. Liposomes were prepared using a molar ratio of approximately 1/5/95, apoA-I/free cholesterol/DMPC. Human retinal pigment epithelial cells grown on 6 well laminin coated Transwell® plates were fed ^14C-docosahexaenoic acid labeled photoreceptor outer segments in medium containing 5% lipoprotein free fetal bovine serum for 36 hours (apical chamber). Basal chambers contained serum free medium and either no human high density lipoprotein (HDL) (Control), 100 μg/ml of human HDL, pure human apoA-I, or human apoA-I vesicles. An aliquot of the basal medium was subjected to liquid scintillation counting. Wells were treated in triplicate. HDL stimulated ^14C-labeled lipid efflux by about 60%.

CC1=C(/C=C/C(C)=C\C=C\C(C)=C\C(=O)O)C(C)(C)CCC1 [cis retinoic acid, 9 cis-retinoic acid]
apo E secretion (ELISA) [1]: upregulate apo E secretion | basal Apo E expression/secretion (Western blot of basal media) ([2]; listed as 9 cis-RA): increased basal expression of Apo E | basal Apo E expression/secretion (Western blot of basal media) ([2]; listed as RA): stimulate basal apo E secretion | transport of 14C-labeled POS to the basal medium [3]: increased transport of ^14C-labeled POS to the basal medium

ApoA-I: pure human apoA-I, purified from human plasma; major lipoprotein component of HDL
stimulation of 14C-labeled lipid efflux (in words) [4]: appeared to stimulate

CC(C)CC[C@@H](O)[C@@H](C)[C@H]1CC[C@H]2[C@@H]3CC=C4C[C@@H](O)CC[C@]4(C)[C@H]3CC[C@]12C [22 (R) hydroxycholesterol]
apo E secretion (ELISA) [1]: upregulate apo E secretion | basal Apo E expression/secretion (Western blot of basal media) [2]: increased basal expression of Apo E | basal Apo E expression/secretion (Western blot of basal media) ([2]; listed as HC): stimulate basal apo E secretion | transport of 14C-labeled POS to the basal medium [3]: increased transport of ^14C-labeled POS to the basal medium

N[C@@H](Cc1cc(I)c(Oc2ccc(O)c(I)c2)c(I)c1)C(=O)O [T3, 3,5,3′-L-triiodothyronine]
apo E secretion (ELISA) [1]: upregulate apo E secretion | basal Apo E expression/secretion (Western blot of basal media) [2]: increased basal expression of Apo E; also recorded: stimulate basal apo E secretion | transport of 14C-labeled POS to the basal medium [3]: increased transport of ^14C-labeled POS to the basal medium
